19 compounds from patent US12484574B2, “Agent for promoting undifferentiation and cryoprotective agent using aprotic zwitterion” (JAPAN SCIENCE AND TECHNOLOGY AGENCY, priority 2019, dated 2025) can be followed below.

Marks after values point to notes of the source that are not given here.

Data set [1] in a line: Glass transition temperature and heat quantity by differential scanning calorimetry (DSC). Type of data set: physicochemical. Conditions: 10 wt % in purified water, cooling −1° C./min, heating 5° C./min. As to the method:
The glass transition temperature and the heat quantity were determined by differential scanning calorimetry (DSC). The measurement was performed with a cooling rate set to −1° C./min an d a heating rate set to 5° C./min.

For another data set, the system named is Wild-type zebrafish AB*. Kind of data set: Influence on development of zebrafish. In kind it is in vivo. Conditions: for Survival rate: fertilized eggs cultured 1.5 to 24 hours. As to the method: All experiments were conducted based on a protocol approved by the animal experiment committee of Kanazawa University. Wild-type zebrafish AB* was raised at 28.5° C. with 14-hour light/10-hour dark cycles in a circulating water system. The medium used was E3 medium (5 mM NaCl, 0.17 mM KCl, 0.33 mM CaCl2, 0.33 mM MgSO4). The medium was supplemented with 1%, 2%, 5% or 10% DMSO or HLS (OE2imC3C). For each test group, eggs were fertilized and then cultured for 1.5 to 24 hours. The embryos thus cultured were washed with E3 medium twice and treated with 1-phenyl-2-thiourea (FUJIFILM Wako Pure Chemical Corp.) in order to prevent pigmentation. The embryos were stained with 0.6 mg/mL o-dianisidine (Tokyo Chemical Industry Co., Ltd.) for 15 minutes and fixed in 4% paraformaldehyde (FUJIFILM Wako Pure Chemical Corp.). The embryos were washed with phosphate-buffered saline containing 0.1% Tween (Sigma-Aldrich Co. LLC) twice. The survival rate was similar between DMSO and HLS (OE2imC3C) up to the 2% addition groups, whereas the survival rate differed largely therebetween in the 5% addition groups.

Another data set has as its system human fibroblasts. Kind of data set: Influence on cell cycle (Click-iT Plus EdU cell proliferation assay). In kind it is cell-based. As to conditions: 2% addition; compared with no addition; FIG. 11. The protocol: The cells used were human fibroblasts.
The test groups were 1% addition groups and 2% addition groups of DMSO and HLS (OE2imC3C) vs. a control.
Cell cycle analysis was conducted using Click-iT® Plus EdU cell proliferation assay (Thermo Fisher Scientific Inc.) containing 5-ethynyl-2′-deoxyuridine (EdU) according to the manufacturer's protocol. The cells were incubated in 10 μM EdU for 1 hour, treated with trypsin, then fixed in 4% PFA, and labeled with Alexa Fluor 647 picolyl azide. The cells were stained with 4′,6-diamidino-2-phenylindole (DAPI) and analyzed with BD FACSAria™ III (BD Biosciences).

The test system of a further data set is Human renal cell. As to the kind of experiment: Cell freezing experiment 4 (slow freezing), viable cell count as ratio to OE2imC3C. Type of data set: cell-based. Conditions: −80° C., −1° C./min. As to the method: (§1) As for the cryopreservation solution, the aprotic zwitterion of each example was dissolved by the addition of purified water to prepare test solutions containing 5% by weight and 10% by weight of the aprotic zwitterion.
(§2) The cells to be frozen were centrifugally recovered by trypsin treatment and diluted with Dulbecco's modified Eagle medium (DMEM), and each cell concentration was measured. The types and cell concentrations of the cells are as follows. • Mouse skin fibroblasts 5.0×10^5 cells/100 μl • Human renal fat cells 5.0×10^5 cells/100 μl
(§3) Subsequently, the cells of each type were dispensed at 1 ml/tube to 1.5 ml tubes, centrifuged, suspended in 100 μl each of the cryopreservation solutions described above, and frozen at a cooling temperature of −80° C. at a cooling rate of −1° C./min using a cell freezing container Mr. Frosty®.
(§4) 1 ml of a medium was added to the cryopreservation vial for thawing, and a supernatant was removed by centrifugation. Subsequently, the cells obtained by centrifugation were resuspended in a medium, followed by the measurement of a viable cell count. The results are indicated by a ratio to the viable cell count of OE2imC3C.

In another data set the test system is Mouse skin fibroblast. Described as above. In kind it is cell-based. As to conditions: −80° C., −1° C./min. As to the method: as §1, §2, §3, §4

In data set [1], `C=CCn1cc[n+](CCCC(=O)[O-])c1` [AimC3C] showed a Heat quantity of -188.37 J/g and a Tg of −85 °C.

`C=CCn1cc[n+](CCCS(=O)(=O)[O-])c1` [AimC3S]: in data set [1], the Heat quantity is -213.16 J/g and the Tg was −85.76 °C.

In data set [1], `C=CCn1cc[n+](CCCCS(=O)(=O)[O-])c1` [AimC4S] returned a Heat quantity of -210.34 J/g and a Tg of −86.07 °C.

Take `C[S+](C)[O-]` [DMSO, dimethyl sulfoxide]: the “development of surviving fertilized eggs (abnormality)” value with Wild-type zebrafish AB* (5 % v/v in E3 medium) is “did not normally develop”. The Survival rate in the data set with Wild-type zebrafish AB* (Concentration 1 % (v/v for DMSO, w/v for HLS) in E3 medium) was 27/27; with Wild-type zebrafish AB* (Concentration 2 % (v/v for DMSO, w/v for HLS) in E3 medium), 27/27; in the data set with Wild-type zebrafish AB* (Concentration 5 % (v/v for DMSO, w/v for HLS) in E3 medium), 4/27*; with Wild-type zebrafish AB* (Concentration 10 % (v/v for DMSO, w/v for HLS) in E3 medium) it was 0/27. Also, the “influence on cell cycle (G0/G1 phase, S phase)” value in the data set with human fibroblasts was “prolonged the G0/G1 phase and drastically shortened the S phase”.

In data set [1], `Cn1cc[n+](CCCC(=O)[O-])c1` [Example C1imC3C] had a Heat quantity of -199.61 J/g and a Tg of −95.22 °C.

In data set [1], `Cn1cc[n+](CCCS(=O)(=O)[O-])c1` [Example C1imC3S] came in with a Heat quantity of -173.36 J/g and a Tg of −88.88 °C.

`C[n+]1ccn(CCCCCC(=O)[O-])c1` [Example C1imC5C] came in with a Heat quantity in data set [1] of -169.61 J/g. Moreover, the Tg in data set [1] was −84.51 °C. In addition, the “viable cell count, ratio to the viable cell count of OE2imC3C” value (“viable cell count, ratio” below) in the data set on Human renal cell (5 wt % in purified water) turned out to be 1.94; in the data set with Human renal cell (10 wt % in purified water) it was 0.72; in the data set with Mouse skin fibroblast (5 wt % in purified water), 0.82; in the data set on Mouse skin fibroblast (10 wt % in purified water) it was 1.09.

In the case of `CCCCn1cc[n+](CCCC(=O)[O-])c1` [Example C4imC3C], in data set [1], the Heat quantity is -198.66 J/g and the Tg was −75.3 °C.

As to `CCCCn1cc[n+](CCCCCC(=O)[O-])c1` [Example C4imC5C], in data set [1], the Heat quantity is -183.73 J/g and the Tg was −74.59 °C.

In data set [1], `CCCCCCCCn1cc[n+](CCCC(=O)[O-])c1` [Example C8imC3C] returned a Heat quantity of -187.42 J/g and a Tg of −84.05 °C.

Turning to `CCCCCCCC[n+]1ccn(CCCS(=O)(=O)[O-])c1` [Example C8imC3S], the “viable cell count, ratio” value in the data set on Human renal cell (5 wt % in purified water) was found to be 0.00; in the data set on Human renal cell (10 wt % in purified water) it was 0.33; in the data set with Mouse skin fibroblast (5 wt % in purified water) it was 0.00; with Mouse skin fibroblast (10 wt % in purified water) it was 0.04.

As to `CCCCCCCCCCCCCC[N+](C)(C)CCCC(=O)[O-]` [N1,1,14C3C], the Heat quantity in data set [1] was -182.67 J/g. The same compound came in with a Tg in data set [1] of −74.96 °C. For the same compound, the “viable cell count, ratio” value with Human renal cell (5 wt % in purified water) is recorded as 0.59; with Human renal cell (10 wt % in purified water), 0.56; in the data set on Mouse skin fibroblast (5 wt % in purified water), 0.58; in the data set on Mouse skin fibroblast (10 wt % in purified water) it was 0.77.

Take `COCCn1cc[n+](CCCC(=O)[O-])c1` [OE1imC3C]: in data set [1], the Heat quantity was -188.49 J/g and the Tg is −86.07 °C.

As to `COCCOCCn1cc[n+](CCCS(=O)(=O)[O-])c1` [OE2imC3S], in data set [1], the Heat quantity is -190.84 J/g and the Tg is −85.48 °C.

`COCCOCCn1cc[n+](CCCCCC(=O)[O-])c1` [OE2imC5C]: in data set [1], the Heat quantity is -190.82 J/g and the Tg is −83.34 °C.

On to `O=C([O-])CCC[n+]1ccccc1` [PyC3C], for which, in data set [1], the Heat quantity is -182.59 J/g and the Tg is −90.35 °C.

In data set [1], `C[N+]1(CCCC(=O)[O-])CCCC1` [PyrrC3C] had a Heat quantity of -188.06 J/g and a Tg of −91.85 °C.

Turning to `C=Cn1cc[n+](CCCC(=O)[O-])c1` [VimC3C], in data set [1], the Heat quantity is -182.17 J/g and the Tg is −85.74 °C.

Regarding `C=Cn1cc[n+](CCCS(=O)(=O)[O-])c1` [VimC3S], in data set [1], the Heat quantity was -170.72 J/g and the Tg was −81.06 °C.
